{
  "source": "patent US20210145730A1",
  "about": "“PROCESS FOR PREPARING AN ORAL DISINTEGRATING DOSAGE FORM” (Zeenar Enterprises Pty Ltd, priority 2017, published 2021)",
  "key": {"[1]": {"details": "cited from earlier work"}, "[2]": {"experiment": "SAXS liquid crystalline phase formation for mixes of GMO and another ingredient immersed in PBS buffer (Example 1)", "format": "physicochemical", "method": "The samples were then mixed via a roller mixer at ˜10 RPM at 40° C. for at least 3 days. One week prior to SAXS experiment, 100 mg samples were loaded into a transparent polystyrene 96 well plate (Nunc™) and immersed in 200 μL of PBS buffer (pH 6.8). The samples were stored away from light at ambient temperature, to allow the samples to reach equilibrium. The SAXS/WAXS beamline at Australian Synchrotron, Melbourne, Australia was used to determine the liquid crystalline nanostructure in the samples. A custom-designed plate holder was used to mount the samples plate directly onto the SAXS/WAXS beamline. Scans were automated using a pre-loaded set of position variables based on the well positions within the plate, the exposure time was 5 sec. Data were obtained at ambient temperature (˜22° C.). […] The 2-D diffraction images were recorded on a Pilatus 1M detector and radially integrated using the in-house software “ScatterBrain”."}, "[3]": {"details": "WO 2014/179845; cited from earlier work"}, "[4]": {"tested_on": "porcine buccal mucosa", "experiment": "In vitro release through porcine buccal mucosa in Ussing chamber", "details": "up to 4 hours, n=5"}, "[5]": {"details": "1% w/w ingredient in mix with GMO"}, "[6]": {"details": "5% w/w ingredient in mix with GMO"}, "[7]": {"details": "20% and above w/w ingredient in mix with GMO"}},
  "note": "Where a name gives a salt, the structure may show the parent alone. Read-outs that look alike come from different tables or passages of the source.",
  "data": [
    {"smiles": "CNCC(O)c1ccc(O)c(O)c1", "note": "(centres unmarked) [Adrenaline]", "values": [
      {"measurement": "logP", "setting": "[1]", "value": "−0.5 to −1.2"}
    ]},
    {"smiles": "COc1ccc(O)c(C(C)(C)C)c1", "note": "[Butylated hydroxy anisole (BHA), Butylated hydroxy anisole]", "values": [
      {"measurement": "Liquid crystalline phase formed", "setting": "[2]; [5]", "value": "cubic"},
      {"measurement": "Liquid crystalline phase formed", "setting": "[2]; [6]", "value": "cubic + hexagonal"},
      {"measurement": "Liquid crystalline phase formed", "setting": "[2]; 10-20% w/w ingredient in mix with GMO", "value": "hexagonal"},
      {"measurement": "Liquid crystalline phase formed", "setting": "[2]; 30% and above w/w ingredient in mix with GMO", "value": "reverse emulsion"},
      {"measurement": "Phase structure", "setting": "[2]; Concentration in GMO 1%", "value": "V2(Pn3m)"},
      {"measurement": "Phase structure", "setting": "[2]; Concentration in GMO 5%", "value": "V2(Pn3m) + H2"}
    ]},
    {"smiles": "CC1CCC(C(C)C)C(O)C1", "note": "(centres unmarked) [Menthol]", "values": [
      {"measurement": "Liquid crystalline phase formed", "setting": "[2]; [5]", "value": "Cubic"},
      {"measurement": "Liquid crystalline phase formed", "setting": "[2]; 1% w/w ingredient in mix with GMO, listed as menthol", "value": "cubic liquid crystalline structure"},
      {"measurement": "Liquid crystalline phase formed", "setting": "[2]; [6]", "value": "hexagonal liquid crystalline structure"},
      {"measurement": "Liquid crystalline phase formed", "setting": "[2]; 5-10% w/w ingredient in mix with GMO", "value": "Hexagonal"},
      {"measurement": "Liquid crystalline phase formed", "setting": "[2]; [7]", "value": "Lamellar"},
      {"measurement": "Liquid crystalline phase formed", "setting": "[2]; 20 to 50% ingredient directly mixed with GMO", "value": "reverse lamella crystalline structure"},
      {"measurement": "Phase structure", "setting": "[2]; Concentration in GMO 1%", "value": "V2(Pn3m)"}
    ]},
    {"smiles": "O=C(O)c1cccnc1", "note": "[Niacin]", "values": [
      {"measurement": "logP", "setting": "[1]", "value": 0.36},
      {"measurement": "liquid crystalline phase formed by blend with GMO", "setting": "[3]", "value": "hexagonal phase"}
    ]},
    {"smiles": "COc1ccc2c3c1O[C@H]1C(=O)CC[C@@]4(O)[C@@H](C2)N(C)CC[C@]314", "note": "[Oxycodone]", "values": [
      {"measurement": "release characteristics (appearance of active ingredient in the receptor chamber over time)", "setting": "[4]", "value": "prolonged release profile with release continuing steadily at 4 hours"}
    ]},
    {"smiles": "CC(C)c1nc(N(C)S(C)(=O)=O)nc(-c2ccc(F)cc2)c1/C=C/[C@@H](O)C[C@@H](O)CC(=O)O", "note": "[Rosuvastatin, reference compound]", "values": [
      {"measurement": "logP", "setting": "[1]; at pH 5", "value": 1.80, "unit": "at pH 5"},
      {"measurement": "logP", "setting": "[1]; at pH 7", "value": 0.30, "unit": "at pH 7"},
      {"measurement": "Liquid crystalline phase formed", "setting": "[2]; [7]", "value": "Lamellar"},
      {"measurement": "Phase structure", "setting": "[2]; Concentration in GMO 1%", "value": "V2(Pn3m)"},
      {"measurement": "Phase structure", "setting": "[2]; Concentration in GMO 5%", "value": "V2(Pn3m)"},
      {"measurement": "Phase structure", "setting": "[2]; Concentration in GMO 10%", "value": "V2(Pn3m)"},
      {"measurement": "Phase structure", "setting": "[2]; Concentration in GMO 15%", "value": "V2(Pn3m) + V2(Im3m)"},
      {"measurement": "Phase structure", "setting": "[2]; Concentration in GMO 20%", "value": "Lα"},
      {"measurement": "Phase structure", "setting": "[2]; Concentration in GMO 35%", "value": "Lα + Lα"},
      {"measurement": "Phase structure", "setting": "[2]; Concentration in GMO 50%", "value": "Lα"},
      {"measurement": "limit of inclusion before GMO is prevented from forming a cubic liquid crystalline structure", "setting": "[2]; directly mixed with GMO, contact with hydrophilic solvent", "value": 15, "unit": "%"},
      {"measurement": "Liquid crystalline phase formed", "setting": "[2]; up to 15% w/w ingredient in mix with GMO", "value": "Cubic (2 types)"}
    ]},
    {"smiles": "O=S(=O)([O-])NC1CCCCC1.[Na+]", "note": "[Sodium cyclamate]", "values": [
      {"measurement": "Liquid crystalline phase formed", "setting": "[2]; 20% w/w ingredient in mix with GMO", "value": "lamellar"},
      {"measurement": "Liquid crystalline phase formed", "setting": "[2]; 50% w/w ingredient in mix with GMO", "value": "lamellar + crystals"},
      {"measurement": "Phase structure", "setting": "[2]; Concentration in GMO 1%", "value": "V2(Pn3m)"},
      {"measurement": "Phase structure", "setting": "[2]; Concentration in GMO 5%", "value": "V2(Pn3m)"},
      {"measurement": "Phase structure", "setting": "[2]; Concentration in GMO 10%", "value": "V2(Pn3m) + other"},
      {"measurement": "Phase structure", "setting": "[2]; Concentration in GMO 20%", "value": "Lα (lamella)"},
      {"measurement": "Phase structure", "setting": "[2]; Concentration in GMO 35%", "value": "Lα + other"},
      {"measurement": "Phase structure", "setting": "[2]; Concentration in GMO 50%", "value": "Lα + other"},
      {"measurement": "Liquid crystalline phase formed", "setting": "[2]; up to 10% w/w ingredient in mix with GMO", "value": "cubic"}
    ]},
    {"smiles": "CCOC(=O)CC(O)(CC(=O)OCC)C(=O)OCC", "note": "[Tri ethyl citrate (TEC), Tri ethyl citrate]", "values": [
      {"measurement": "Liquid crystalline phase formed", "setting": "[2]; 35% and above w/w ingredient in mix with GMO", "value": "reverse emulsion"},
      {"measurement": "Phase structure", "setting": "[2]; Concentration in GMO 1%", "value": "V2(Pn3m) (ie"},
      {"measurement": "Phase structure", "setting": "[2]; Concentration in GMO 5%", "value": "V2(Pn3m)"},
      {"measurement": "Phase structure", "setting": "[2]; Concentration in GMO 10%", "value": "V2(Pn3m)"},
      {"measurement": "Phase structure", "setting": "[2]; Concentration in GMO 20%", "value": "V2(Pn3m)"},
      {"measurement": "Liquid crystalline phase formed", "setting": "[2]; up to 20% w/w ingredient in mix with GMO", "value": "cubic"}
    ]}
  ]
}
